From US20040266811A1, “Methods for inducing regeneration, remyelination, and hypermyelination of nervous tissue” (priority 2002, published 2004)
Entries after “also recorded” stand apart in the source; their conditions may differ.

What was measured:
[1] = system: purified chick sensory neurons (PC12 or SH-SY5Y cells); conditions: literature; cited from earlier work
[2] = system: calcineurin; conditions: cited from earlier work
[3] = system: DRG explants; assay: DRG explant neurite outgrowth with anti-NGF neutralizing antibodies or MEK1 inhibitor; type: cell-based, C57B1/6 mice
Method: (A) DRGs were prepared and cultured as above, except that either the MEK1 inhibitor, PD 098059, or NGF-neutralizing antibodies were included in cultures treated with either NGF or GM-284. Maximal response was determined to be the extent of neurite outgrowth when DRGs were cultured in NGF alone (spotted bars) or in 1 μM GM-284 (striped bars). As indicated, DRGs were treated with either NGF or GM-284, in the presence of either 0.25 mg/ml anti-NGF neutralizing antibodies or PD 098059. […] DRGs were treated with 100 ng/ml NGF or 1 μM GM-284, for 30 min or 4 h, as indicated, and the detergent lysates were prepared and immunoblotted with anti-phospho-Erk monoclonal antibody. The p42 and p44 bands are indicated by arrowheads.
Explanted DRG ganglia were dissected from P1 to P3 C57B1/6 mice, as previously described (Weinstein et al., Targeted expression of an oncogenic adaptor protein v-Crk potentiates axonal growth in dorsal root ganglia and motor neurons in vivo. Brain Res. Dev. Brain Res., 116:29-39, 1999). Briefly, DRGs were dissected and placed in ice-cold PBS containing 2% glucose, then transferred onto polyornithine/laminin-coated tissue culture plates (Biocoat, Becton Dickinson Laboratories) in DMEM-plating medium overnight. The plating medium consisted of Dulbecco's minimal essential plating medium (DMEM) supplemented with 10% fetal calf serum (FCS; Hyclone), 0.6% glucose, 2 mM glutamine, 100 U/ml penicillin, 100 μg/ml streptomycin, and 20 mM HEPES. […] For experiments employing anti-NGF neutralizing antibodies, cultures were incubated with […] anti-NGF antiserum, and replaced every two days. Cultures were kept at 37° C., in 5% CO2, for up to 1 week, at which time the extent of well-defined neurite outgrowth was assessed.
Signaling by the neurotrophins, while mediated by different cell-surface receptors, converges on the extensively studied and well-characterized MAP kinase pathway. […] Therefore, the inventors explored the possibility that GM-284 might signal through NGF directly, or through the MAP kinase cascade. […]

Row | Structure (SMILES) | neurite outgrowth without other signaling molecules / with sub-threshold NGF [1] | binding to / inhibition of calcineurin [2] | effect of anti-NGF / MEK1 inhibition on GM-284-mediated neurite outgrowth ([3]; DRGs cultured in 1 μM GM-284 plus inhibitor) | decrease of NGF-dependent neurite outgrowth ([3]; DRGs cultured in NGF plus inhibitor)
1 | CCC(C)(C)C(=O)C(=O)N1CCC[C@H]1C(=O)OCCCc1cccnc1 [GPI-1046] | potentiate neurite outgrowth only when co-administered with sub-threshold concentrations of NGF; also recorded: unable to mediate neurite outgrowth in the absence of other signaling molecules | neither bind to, nor inhibit, calcineurin | – | –
2 | COc1cccc(-c2cc(=O)c3ccccc3o2)c1N [PD 098059] | – | – | no effect | ~40%
